Columns and labels:
[1] = target: T1, Nuclear factor erythroid 2-related factor 2 (Homo sapiens) (UniProt Q16236); test: Activation of Nrf2 in human HSC3-ARE9 cells assessed as increase of ARE-mediated luciferase expression at 50 uM after 24 hrs relative to control; format: cell-based
T1 sequence (whole entry): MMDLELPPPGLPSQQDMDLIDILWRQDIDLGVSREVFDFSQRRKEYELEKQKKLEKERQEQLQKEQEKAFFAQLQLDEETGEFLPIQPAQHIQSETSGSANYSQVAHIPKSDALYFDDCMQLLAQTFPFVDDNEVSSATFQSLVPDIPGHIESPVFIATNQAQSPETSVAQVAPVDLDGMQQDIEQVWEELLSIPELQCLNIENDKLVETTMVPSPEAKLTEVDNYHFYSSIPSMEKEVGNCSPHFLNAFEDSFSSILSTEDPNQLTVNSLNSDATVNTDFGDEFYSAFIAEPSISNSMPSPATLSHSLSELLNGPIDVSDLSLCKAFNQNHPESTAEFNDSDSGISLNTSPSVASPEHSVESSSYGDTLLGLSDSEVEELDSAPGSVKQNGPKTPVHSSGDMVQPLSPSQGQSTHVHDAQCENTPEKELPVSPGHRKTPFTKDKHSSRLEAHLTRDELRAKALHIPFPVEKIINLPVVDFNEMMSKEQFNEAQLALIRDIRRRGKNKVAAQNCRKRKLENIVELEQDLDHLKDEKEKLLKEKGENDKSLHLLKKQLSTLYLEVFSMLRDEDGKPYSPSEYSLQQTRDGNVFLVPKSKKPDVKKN

[2] = target: T1, Nuclear factor erythroid 2-related factor 2 (Homo sapiens); test: Activation of Nrf2 in human HSC3-ARE9 cells assessed as increase of ARE-mediated AKR1C1 mRNA expression at 50 uM after 24 hrs by RT-PCR analysis relative to control; format: cell-based
[3] = target: T1, Nuclear factor erythroid 2-related factor 2 (Homo sapiens); test: Activation of Nrf2 in human HSC3-ARE9 cells assessed as increase of ARE-mediated GCLC mRNA expression at 50 uM after 24 hrs by RT-PCR analysis relative to control; format: cell-based
[4] = target: T1, Nuclear factor erythroid 2-related factor 2 (Homo sapiens); test: Activation of Nrf2 in human HSC3-ARE9 cells assessed as increase of ARE-mediated Prx1 mRNA expression at 50 uM after 24 hrs by RT-PCR analysis relative to control; format: cell-based
[5] = Antioxidant activity assessed as DPPH radical scavenging activity; format: physicochemical
[6] = target: T1, Nuclear factor erythroid 2-related factor 2 (Homo sapiens); test: Activation of Nrf2 in human HSC3-ARE9 cells assessed as increase of ARE-mediated luciferase expression after 24 hrs; format: cell-based
[7] = Cytotoxicity against human HSC3 cells after 24 hrs by MTT assay; format: cell-based; conditions: hsc-3, 24 h

Row | SMILES | fold change (FC) [1] | further results
1 | O=C(COc1cc2ccccc2oc1=O)Nc1ccc2ccccc2c1 | 1.13 | 
2 | O=C(COc1ccc2oc(=O)ccc2c1)c1ccc(F)cc1 | 1.58 | 
3 | O=C(COc1cc(=O)oc2ccccc12)c1ccc(F)cc1 | 1.26 | 
4 | O=c1oc2ccccc2cc1OC/C(=N\O)c1ccc2ccccc2c1 | 1.31 | 
5 | O=C(COc1ccc2ccc(=O)oc2c1)c1ccccc1 | 1.93 | 
6 | C/C(COc1ccc2ccc(=O)oc2c1)=N\O | 1.68 | 
7 | O=C(COc1cc(=O)oc2ccccc12)Nc1ccc(-c2ccccc2)cc1 | 1.17 | 
8 | O=C(COc1ccc2ccc(=O)oc2c1)c1ccc(F)cc1 | 1.14 | 
9 | CC(C)(C)c1cc(O)ccc1O [E319] | 2.01 | fold change (FC) [2]: 2.3; fold change (FC) [3]: 2; fold change (FC) [4]: 1.1; EC50 [5]: 57.5 µM
10 | COc1ccc(NC(=O)COc2cc3ccccc3oc2=O)cc1 | 0.95 | 
11 | O=c1ccc2ccc(OC/C(=N\O)c3ccc4ccccc4c3)cc2o1 | 1.04 | 
12 | O=C(COc1ccc2ccc(=O)oc2c1)Nc1ccc(F)cc1 | 1.16 | 
13 | O=C(COc1ccc2ccc(=O)oc2c1)Nc1ccc(-c2ccccc2)cc1 | 1.09 | 
14 | O=C(COc1cc2ccccc2oc1=O)Nc1ccc(F)cc1 | 1.34 | 
15 | O=c1oc2ccccc2cc1OC/C(=N\O)c1ccc(-c2ccccc2)cc1 | 1.44 | 
16 | O=C(COc1ccc2oc(=O)ccc2c1)c1ccc(-c2ccccc2)cc1 | 0.85 | 
17 | O=C(COc1cc(=O)oc2ccccc12)Nc1ccccc1 | 1.06 | 
18 | O=C(COc1cc2ccccc2oc1=O)Nc1ccccc1 | 2.51 | 
19 | CC(=O)COc1cc2ccccc2oc1=O | 0.92 | 
20 | O=c1ccc2cc(OC/C(=N\O)c3ccc4ccccc4c3)ccc2o1 | 1.46 | 
21 | COc1ccc(C(=O)COc2ccc3oc(=O)ccc3c2)cc1 | 0.82 | 
22 | O=C(COc1cc(=O)oc2ccccc12)c1ccc2ccccc2c1 | 1.52 | 
23 | CC(=O)COc1cc(=O)oc2ccccc12 | 0.79 | 
24 | O=C(COc1ccc2oc(=O)ccc2c1)c1ccccc1 | 2.54 | 

Row | SMILES | fold change (FC) [1] | further results
25 | O=C(COc1cc2ccccc2oc1=O)Nc1ccc(-c2ccccc2)cc1 | 1.22 | 
26 | O=c1ccc2cc(OC/C(=N\O)c3ccc(-c4ccccc4)cc3)ccc2o1 | 1.5 | 
27 | O=C(COc1ccc2ccc(=O)oc2c1)c1ccc(-c2ccccc2)cc1 | 0.85 | 
28 | O=C(COc1ccc2ccc(=O)oc2c1)Nc1ccccc1 | 2.27 | 
29 | O=C(COc1cc2ccccc2oc1=O)c1ccc2ccccc2c1 | 0.98 | 
30 | COc1ccc(/C(COc2ccc3ccc(=O)oc3c2)=N/O)cc1 | 1.28 | 
31 | O=C(COc1cc(=O)oc2ccccc12)Nc1ccc2ccccc2c1 | 1.37 | 
32 | O=C(COc1ccc2oc(=O)ccc2c1)Nc1ccccc1 | 2.08 | 
33 | O=c1cc(OC/C(=N\O)c2ccc3ccccc3c2)c2ccccc2o1 | 1.43 | 
34 | CC(=O)COc1ccc2oc(=O)ccc2c1 | 1.03 | 
35 | O=c1ccc2ccc(OC/C(=N\O)c3ccc(-c4ccccc4)cc3)cc2o1 | 0.9 | 
36 | COc1ccc(/C(COc2cc3ccccc3oc2=O)=N/O)cc1 | 1.49 | 
37 | C/C(COc1cc(=O)oc2ccccc12)=N\O | 1.37 | 
38 | COc1ccc(NC(=O)COc2cc(=O)oc3ccccc23)cc1 | 1.34 | 
39 | COc1ccc(C(=O)COc2cc(=O)oc3ccccc23)cc1 | 1.36 | 
40 | COc1ccc(C(=O)COc2ccc3ccc(=O)oc3c2)cc1 | 1.07 | 
41 | O=c1cc(OC/C(=N\O)c2ccc(-c3ccccc3)cc2)c2ccccc2o1 | 1.32 | 
42 | O=c1ccc2cc(OC/C(=N\O)c3ccccc3)ccc2o1 | 3.02 | Activity [6]: Dose-dependent effect; Activity [7]: Non-toxic; EC50 [5]: > 400 µM
43 | O=c1ccc2cc(O)ccc2o1 [6-HYDROXYCOUMARIN] | 0.99 | EC50 [5]: > 400 µM
44 | COc1ccc(/C(COc2ccc3oc(=O)ccc3c2)=N/O)cc1 | 1.33 | 
45 | C/C(COc1ccc2oc(=O)ccc2c1)=N\O | 1.64 | 
46 | O=C(COc1ccc2oc(=O)ccc2c1)Nc1ccc(F)cc1 | 0.95 | 
47 | O=C(COc1cc(=O)oc2ccccc12)c1ccc(-c2ccccc2)cc1 | 0.42 | 
48 | O=c1ccc2ccc(OC/C(=N\O)c3ccccc3)cc2o1 | 2.16 | 

Row | SMILES | fold change (FC) [1] | further results
49 | O=c1oc2ccccc2cc1OC/C(=N\O)c1ccc(F)cc1 | 3.25 | Activity [6]: Dose-dependent effect; Activity [7]: Non-toxic; EC50 [5]: > 400 µM
50 | O=C(COc1ccc2ccc(=O)oc2c1)Nc1ccc2ccccc2c1 | 1.06 | 
51 | O=C(COc1ccc2oc(=O)ccc2c1)c1ccc2ccccc2c1 | 0.61 | 
52 | O=C(COc1ccc2oc(=O)ccc2c1)Nc1ccc2ccccc2c1 | 0.91 | 
53 | O=C(COc1cc2ccccc2oc1=O)c1ccccc1 | 1.72 | 
54 | O=c1cc(OC/C(=N\O)c2ccc(F)cc2)c2ccccc2o1 | 1.67 | 
55 | C/C(COc1cc2ccccc2oc1=O)=N\O | 1.63 | 
56 | CC(=O)COc1ccc2ccc(=O)oc2c1 | 1.09 | 
57 | O=c1ccc2cc(OC/C(=N\O)c3ccc(F)cc3)ccc2o1 | 2.32 | 
58 | O=c1cc(OC/C(=N\O)c2ccccc2)c2ccccc2o1 | 1.35 | 
59 | O=C(COc1ccc2oc(=O)ccc2c1)Nc1ccc(-c2ccccc2)cc1 | 0.95 | 
60 | COc1ccc(/C(COc2cc(=O)oc3ccccc23)=N/O)cc1 | 1.76 | 
61 | O=C(COc1cc(=O)oc2ccccc12)c1ccccc1 | 1.98 | 
62 | COc1ccc(NC(=O)COc2ccc3ccc(=O)oc3c2)cc1 | 0.98 | 
63 | O=c1ccc2ccc(OC/C(=N\O)c3ccc(F)cc3)cc2o1 | 1.32 | 
64 | O=C(COc1cc2ccccc2oc1=O)c1ccc(-c2ccccc2)cc1 | 0.98 | 
65 | O=c1oc2ccccc2cc1O [3-HYDROXYCOUMARIN] | 0.94 | EC50 [5]: 65.8 µM
66 | COc1ccc(NC(=O)COc2ccc3oc(=O)ccc3c2)cc1 | 0.89 | 
67 | O=C(COc1cc2ccccc2oc1=O)c1ccc(F)cc1 | 1.64 | 
68 | O=c1cc(O)c2ccccc2o1 [4-HYDROXYCOUMARINS] | 0.84 | EC50 [5]: 351 µM
69 | COc1ccc(C(=O)COc2cc3ccccc3oc2=O)cc1 | 1.54 | 
70 | O=c1ccc2ccc(O)cc2o1 [UMBELLIFERONE] | 0.98 | EC50 [5]: > 400 µM
71 | O=C(COc1cc(=O)oc2ccccc12)Nc1ccc(F)cc1 | 1.11 | 
72 | O=C(COc1ccc2ccc(=O)oc2c1)c1ccc2ccccc2c1 | 0.17 | 

Source: ChEMBL document CHEMBL3739322, “Novel oxime-bearing coumarin derivatives act as potent Nrf2/ARE activators in vitro and in mouse model” (Eur J Med Chem, 2015)
